The assay concerns the target T1, MAPK15 (ERK7) (Homo sapiens, UniProt Q8TD08).
T1 construct: purchased Thermo Fisher Scientific (Life Technologies) SelectScreen
The experiment in a line: SelectScreen LanthaScreen. The format is binding. The note with it: read-out: % displacement. A digest of the protocol: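 SelectScreen broad panel; activity (Z'LYTE, Adapta) plus binding formats. ATP: Km app for CSF1R Z'LYTE; 10 for CAMK1 Adapta. Readout = % per kinase.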
Background: In TR-FRET formats the signal depends on donor and acceptor labels being close together.

T1 sequence (Q8TD08 whole entry): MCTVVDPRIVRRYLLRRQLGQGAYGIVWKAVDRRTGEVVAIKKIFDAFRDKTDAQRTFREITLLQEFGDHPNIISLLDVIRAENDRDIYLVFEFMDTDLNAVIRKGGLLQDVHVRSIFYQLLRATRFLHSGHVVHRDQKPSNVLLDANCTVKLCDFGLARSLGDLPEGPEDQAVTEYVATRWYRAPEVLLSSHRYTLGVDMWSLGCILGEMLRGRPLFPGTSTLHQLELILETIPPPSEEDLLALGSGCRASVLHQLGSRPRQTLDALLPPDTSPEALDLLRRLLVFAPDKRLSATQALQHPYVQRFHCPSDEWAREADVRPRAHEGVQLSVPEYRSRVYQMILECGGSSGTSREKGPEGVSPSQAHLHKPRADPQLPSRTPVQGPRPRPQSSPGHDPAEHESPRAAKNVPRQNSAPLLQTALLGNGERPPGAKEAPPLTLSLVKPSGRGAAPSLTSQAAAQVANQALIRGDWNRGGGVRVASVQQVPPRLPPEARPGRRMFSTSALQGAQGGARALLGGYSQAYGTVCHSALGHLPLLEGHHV

Consider `CN(C(=O)CN1CCOCC1)c1ccc2sc3c(-c4cccc5c(=O)cc(N6CC7CCC(C6)O7)oc45)cccc3c2c1` [NU5455], for which the inhibition at 1 µM was found to be 3.6%.

These data come from article PMC6934184, “Selective DNA-PKcs inhibition extends the therapeutic index of localized radiotherapy and chemotherapy” (The Journal of Clinical Investigation, 2019).
